ChEMBL document CHEMBL1201862, “PubChem BioAssay data set” (2004)
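Assay format: 96-well plates, 48-hour exposure. The concentration for 50% growth inhibition is given as GI50.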 The source made the active and inactive calls. Cut-off read from the data, not from the text of the source: active = GI50 up to about 1.1 µM and inactive = higher.

Experiments:
Experiment in all cases: NCI anticancer screen, dose series, 48 h
UACC-257 = tested on: UACC-257
RXF 393 = tested on: RXF 393
A549 = tested on: A549
RPMI-8226 = tested on: RPMI-8226
SF-295 = tested on: SF-295
M14 = tested on: M14
U-251 = tested on: U-251
SK-OV-3 = tested on: SK-OV-3
KM12 = tested on: KM12
LOX IMVI = tested on: LOX IMVI
SNB-75 = tested on: SNB-75
ACHN = tested on: ACHN
K562 = tested on: K562
SW-620 = tested on: SW-620
NCI-H226 = tested on: NCI-H226
HCT-116 = tested on: HCT-116
SK-MEL-2 = tested on: SK-MEL-2
SR = tested on: SR

Measured: GI50

CCCCCCCCCCn1cccc1/C=C/c1ccc(/C=C/c2cccn2CCCCCCCCCC)cc1
inactive: UACC-257 > 100 µM | RXF 393 > 100 µM | A549 > 100 µM | RPMI-8226 > 100 µM | SF-295 > 100 µM | M14 > 100 µM | U-251 > 100 µM | SK-OV-3 > 100 µM | KM12 > 100 µM | LOX IMVI > 100 µM | SNB-75 > 100 µM | ACHN > 100 µM | K562 > 100 µM | SW-620 > 100 µM | NCI-H226 > 100 µM | HCT-116 > 100 µM

N#CC1(CCCCl)CCCCC1
inactive: UACC-257 > 100 µM | RXF 393 > 100 µM | A549 > 100 µM | SF-295 > 100 µM | SK-MEL-2 > 100 µM | M14 > 100 µM | U-251 > 100 µM | SK-OV-3 > 100 µM | SR > 100 µM | KM12 > 100 µM | LOX IMVI > 100 µM | SNB-75 32.4 µM | ACHN > 100 µM | K562 > 10 µM | SW-620 > 100 µM | HCT-116 > 100 µM

O=C(O)CCNCCCCNCCC(=O)O
inactive: RXF 393 > 100 µM | A549 > 100 µM | RPMI-8226 > 100 µM | SF-295 > 100 µM | SK-MEL-2 > 100 µM | M14 > 100 µM | U-251 > 100 µM | SK-OV-3 > 100 µM | KM12 > 100 µM | LOX IMVI > 100 µM | SNB-75 > 100 µM | ACHN > 100 µM | K562 > 100 µM | SW-620 > 100 µM | NCI-H226 > 100 µM | HCT-116 > 100 µM

NC(CCCNCc1ccccc1)C(=O)O (stereo not drawn)
inactive: UACC-257 > 100 µM | A549 > 100 µM | RPMI-8226 > 100 µM | SF-295 > 10 µM | SK-MEL-2 > 100 µM | M14 > 100 µM | SK-OV-3 > 100 µM | KM12 > 100 µM | LOX IMVI > 100 µM | SNB-75 > 100 µM | ACHN > 100 µM | K562 > 100 µM | SW-620 > 100 µM | NCI-H226 > 100 µM | HCT-116 > 100 µM

CCc1ccc(Cc2ccc(CC)c(NC(=O)C(=O)Cc3nc4ccccc4nc3C)c2CC)c(CC)c1NC(=O)C(=O)Cc1nc2ccccc2nc1C
inactive: UACC-257 > 100 µM | RXF 393 41.4 µM | A549 > 100 µM | RPMI-8226 > 100 µM | SK-MEL-2 > 100 µM | M14 > 100 µM | U-251 49.7 µM | SK-OV-3 > 100 µM | KM12 > 100 µM | LOX IMVI > 100 µM | SNB-75 9.77 µM | ACHN 61.2 µM | K562 > 100 µM | SW-620 > 100 µM | HCT-116 52.5 µM

N#C/C(=C\c1cc(O)ccc1O)C(N)=O
inactive: UACC-257 28.4 µM | RXF 393 19 µM | A549 78.5 µM | RPMI-8226 27.2 µM | SF-295 47.6 µM | SK-MEL-2 42.5 µM | M14 38.6 µM | U-251 98.4 µM | SK-OV-3 67.6 µM | KM12 46.1 µM | SNB-75 14.6 µM | ACHN 26.8 µM | K562 27 µM | SW-620 49.9 µM | NCI-H226 34 µM | HCT-116 63.2 µM

O=C(O)c1cc(S(=O)(=O)N/N=C\c2c3ccccc3[n+]([O-])c3ccccc23)ccc1O
inactive: UACC-257 26.1 µM | A549 22.7 µM | RPMI-8226 7.48 µM | SF-295 4.45 µM | SK-MEL-2 16.9 µM | M14 17.1 µM | U-251 23.2 µM | SK-OV-3 38.3 µM | KM12 23.8 µM | LOX IMVI 8 µM | SNB-75 2.58 µM | ACHN 18.6 µM | K562 8.61 µM | SW-620 11.3 µM | NCI-H226 26.7 µM | HCT-116 7.55 µM

CCOP(=O)(OCC)C(C(=O)OC)C(=O)C(=O)Nc1ccc(Cl)cc1Cl (stereo not drawn)
inactive: UACC-257 > 100 µM | RXF 393 65.3 µM | A549 > 100 µM | RPMI-8226 > 100 µM | SK-MEL-2 > 100 µM | M14 > 100 µM | U-251 > 100 µM | SK-OV-3 > 100 µM | KM12 > 100 µM | LOX IMVI > 100 µM | SNB-75 > 100 µM | ACHN > 100 µM | K562 > 100 µM | SW-620 > 100 µM | NCI-H226 > 100 µM | HCT-116 > 100 µM

CC(C)(C)OC(=O)C1/C(=C/CBr)CN1C(=O)OC(C)(C)C (stereo not drawn)
inactive: UACC-257 16.3 µM | A549 18.9 µM | RPMI-8226 3.98 µM | SF-295 15.9 µM | SK-MEL-2 > 10 µM | M14 16.6 µM | SK-OV-3 21.1 µM | LOX IMVI 3.24 µM | ACHN 16.7 µM | K562 2.73 µM | SW-620 5 µM | HCT-116 11.4 µM

CCOC(=O)C(Cc1ccccc1)NC(=O)c1nc[nH]c1/N=N/N(C)C (stereo not drawn)
inactive: UACC-257 > 100 µM | A549 > 100 µM | RPMI-8226 > 100 µM | SF-295 > 100 µM | SK-MEL-2 > 100 µM | M14 > 100 µM | U-251 > 100 µM | SK-OV-3 > 100 µM | SR > 100 µM | KM12 > 100 µM | LOX IMVI > 100 µM | SNB-75 > 100 µM | ACHN > 100 µM | K562 > 100 µM | SW-620 > 100 µM | NCI-H226 > 100 µM | HCT-116 > 100 µM

COC12OCCN(C)C1=CC(=O)C1=NNC(C)C12 (stereo not drawn)
inactive: UACC-257 > 100 µM | RXF 393 > 100 µM | A549 > 100 µM | RPMI-8226 > 100 µM | SF-295 > 100 µM | M14 > 100 µM | U-251 > 100 µM | SK-OV-3 > 100 µM | KM12 > 100 µM | LOX IMVI > 100 µM | SNB-75 > 100 µM | K562 > 100 µM | SW-620 > 100 µM | NCI-H226 > 100 µM | HCT-116 > 100 µM

Cc1c2ccncc2c(C)c2c1[nH]c1ccc(OC(C)(C)C)cc12
inactive: UACC-257 1.97 µM | A549 3.15 µM | RPMI-8226 2.08 µM | SF-295 2.07 µM | SK-MEL-2 2.03 µM | M14 4.06 µM | U-251 2.82 µM | SK-OV-3 4.42 µM | LOX IMVI 2.24 µM | SNB-75 1.85 µM | K562 2.08 µM | SW-620 2.14 µM | NCI-H226 3.17 µM | HCT-116 1.67 µM

CC1=Nn2c(nnc2-c2ccc(N)cc2)NC(C)(C)C1
inactive: UACC-257 > 100 µM | A549 > 100 µM | RPMI-8226 > 100 µM | SF-295 > 100 µM | SK-MEL-2 > 100 µM | M14 > 100 µM | U-251 > 100 µM | SK-OV-3 > 100 µM | KM12 > 100 µM | LOX IMVI > 100 µM | ACHN > 100 µM | K562 > 100 µM | SW-620 > 100 µM | NCI-H226 > 100 µM
